pIC50: −log10 of the molar value.
Assays:
sodium channel = assay: Guanidine influx assay (14C-guanidine radiotracer flux, in vitro); assay type: cell-based, human or rat; conditions: guanidine influx assay using a known cell line that expresses a sodium channel
Summary of the method: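 Aconitine holds channels open while 14C-guanidine enters human or rat sodium-channel-expressing cells in choline-substituted low-sodium saline, with test agent present at ambient temperature. Retained tracer is scintillation-counted and IC50 fitted by a four-parameter logistic model.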

CYP3A4 = CYP3A4 (Homo sapiens, UniProt P08684); assay: Cytochrome P450 (CYP450) Inhibition Assay, CYP3A4 (Vivid fluorescence, BOMCC substrate); conditions: human, P450 Baculosomes (recombinant CYP3A4), probe BOMCC (Vivid substrate)
Chain of CYP3A4 (P08684 whole entry): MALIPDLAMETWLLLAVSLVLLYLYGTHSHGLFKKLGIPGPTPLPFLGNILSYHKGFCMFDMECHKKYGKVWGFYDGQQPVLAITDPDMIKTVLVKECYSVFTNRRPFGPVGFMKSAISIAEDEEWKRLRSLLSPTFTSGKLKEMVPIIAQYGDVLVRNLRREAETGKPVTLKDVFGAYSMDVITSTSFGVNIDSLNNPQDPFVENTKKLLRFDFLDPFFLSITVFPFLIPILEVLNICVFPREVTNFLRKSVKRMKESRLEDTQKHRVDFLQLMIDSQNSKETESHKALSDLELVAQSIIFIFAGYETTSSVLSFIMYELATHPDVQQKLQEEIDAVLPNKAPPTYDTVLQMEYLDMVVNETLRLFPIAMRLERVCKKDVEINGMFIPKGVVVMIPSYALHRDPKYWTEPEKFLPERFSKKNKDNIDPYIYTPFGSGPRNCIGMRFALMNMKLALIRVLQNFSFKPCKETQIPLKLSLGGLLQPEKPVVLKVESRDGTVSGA

| pIC50 (sodium channel) | inhibition at 10 µM (CYP3A4) [%] | melting point | pIC50 (sodium channel; activity level class) | SMILES |
| --- | --- | --- | --- | --- |
| 6.00 to 7.00 | > 50 | 156 to 158 °C | – | COCCOCCN1C(=O)C2(COc3cc4c(cc32)OCCO4)c2c1ccc1ncsc21 (stereo not drawn) [Example 9.71, 6′-[2-(2-methoxyethoxy)ethyl]-2,3-dihydrospiro[furo[2,3-g][1,4]benzodioxine-8,8′-[1,3]thiazolo[5,4-e]indol]-7′(6′H)-one] |
| – | < 50 | 216 to 220 °C | 6.00 to 7.00 | O=C1Nc2ccccc2C12COc1cc3c(cc12)CCCO3 (stereo not drawn) [Example 3.21, 6,7-dihydro-5H-spiro[furo[3,2-g]chromene-3,3′-indol]-2′(1′H)-one] |
| – | < 50 | 134 to 135 °C | 6.00 to 7.00 | Cc1noc2cc3c(cc12)C1(CO3)C(=O)N(C[C@H]2CCCO2)c2ccccc21 (stereo partly drawn) [Example 9.26, 3-methyl-1′-[(2R)-tetrahydrofuran-2-ylmethyl]spiro[furo[3,2-f][1,2]benzisoxazole-5,3′-indol]-2′(1′H)-one] |
| 5.00 to 6.00 | < 50 | 250 to 252 °C | – | Cc1ccc(C)c(NC(=O)CN2C(=O)C3(COc4cc5c(cc43)CCO5)c3ccccc32)c1 (stereo not drawn) [Example 12.53, N-(2,5-dimethylphenyl)-2-(2′-oxo-5,6-dihydrospiro[benzo[1,2-b:5,4-b′]difuran-3,3′-indol]-1′(2′H)-yl)acetamide] |
| – | < 50 | 202 to 204 °C | 7.00 to 9.00 | O=C1N(Cc2nc3ncccc3o2)c2ccccc2C12COc1cc3c(cc12)OCO3 (stereo not drawn) [Example 6.8, 1′-([1,3]oxazolo[4,5-b]pyridin-2-ylmethyl)spiro[furo[2,3-f][1,3]benzodioxole-7,3′-indol]-2′(1′H)-one] |
| 7.00 to 9.00 | > 50 | 139 to 140 °C | – | O=C1N(Cc2noc(C(F)(F)F)n2)c2ccccc2C12COc1cc3c(cc12)OCO3 (stereo not drawn) [Example 11.72, 1-{[5-(trifluoromethyl)-1,2,4-oxadiazol-3-yl]methyl}spiro[furo[2,3-f][1,3]benzodioxole-7,3′-indol]-2′(1′H)-one] |
| – | > 50 | 170 to 172 °C | 7.00 to 9.00 | N#CCN1C(=O)C2(COc3cc4c(cc32)OCO4)c2ccccc21 (stereo not drawn) [Example 4.73, (2′-oxospiro[furo[2,3-f][1,3]benzodioxole-7,3′-indol]-1′(2′H)-yl)acetonitrile] |
| – | > 50 | 180 to 182 °C | 7.00 to 9.00 | Cn1nc(C(F)(F)F)c(CN2C(=O)C3(COc4cc5c(cc43)OCO5)c3ccccc32)c1Cl (stereo not drawn) [Example 1.16, 1′-{[5-chloro-1-methyl-3-(trifluoromethyl)-1H-pyrazol-4-yl]methyl}spiro[furo[2,3-f][1,3]benzodioxole-7,3′-indol]-2′(1′H)-one] |
| 7.00 to 9.00 | < 50 | 177 to 178 °C | – | Cc1noc(-c2ccc(CN3C(=O)C4(COc5cc6c(cc54)OCCO6)c4ccccc43)cc2)n1 (stereo not drawn) [Example 30, 1′-[4(3-methyl-1,2,4-oxadiazol-5-yl)benzyl]-2,3-dihydrospiro[furo[2,3-g][1,4]benzodioxine-8,3′-indol]-2′(1′H)-one] |
| 7.00 to 9.00 | < 50 | 236 to 238 °C | – | CC(=O)N1C(=O)C2(COc3cc4c(cc32)OCCO4)c2ccccc21 (stereo not drawn) [Example 22, 1′-acetyl-2,3-dihydrospiro[furo[2,3-g][1,4]benzodioxine-8,3′-indol]-2′(1′H)-one] |
| – | < 50 | 131 to 134 °C | 7.00 to 9.00 | O=C1N(Cc2cccc(C(F)(F)F)c2)c2ccccc2C12COc1cc3c(cc12)OCCO3 (stereo not drawn) [Example 7.1, 1′-[3-(trifluoromethyl)benzyl]-2,3-dihydrospiro[furo[2,3-g][1,4]benzodioxine-8,3′-indol]-2′(1′H)-one] |
| 7.00 to 9.00 | < 50 | 227 to 228 °C | – | O=C1N(C2CC2)c2ccccc2C12COc1cc3c(cc12)OCCO3 (stereo not drawn) [Example 21, 1′-cyclopropyl-2,3-dihydrospiro[furo[2,3-g][1,4]benzodioxine-8,3′-indol]-2′(1′H)-one] |
| 7.00 to 9.00 | < 50 | 117 to 119 °C | – | O=C(CN1C(=O)C2(COc3cc4c(cc32)OCCO4)c2ccccc21)Nc1ccccc1F (stereo not drawn) [Example 13.7, N-(2-fluorophenyl)-2-(2′-oxo-2,3-dihydrospiro[furo[2,3-g][1,4]benzodioxine-8,3′-indol]-1′(2′H)-yl)acetamide] |
| – | > 50 | 128 to 129 °C | 5.00 to 6.00 | CCCCCN1C(=O)[C@]2(COc3cc4c(cc32)CCO4)c2ccccc21 [Example 5.3, (3R)-1′-pentyl-5,6-dihydrospiro[benzo[1,2-b:5,4-b′]difuran-3,3′-indol]-2′(1′H)-one] |
| 5.00 to 6.00 | > 50 | 168 to 170 °C | – | O=C(c1ccccc1CN1C(=O)C2(COc3cc4c(cc32)CCO4)c2ccccc21)N1CCCCC1 (stereo not drawn) [Example 12.17, 1′-[2-(piperidin-1-ylcarbonyl)benzyl]-5,6-dihydrospiro[benzo[1,2-b:5,4-b′]difuran-3,3′-indol]-2′(1′H)-one] |
| – | > 50 | 185 to 186 °C | 5.00 to 6.00 | O=C1OCCN1CCN1C(=O)C2(COc3cc4c(cc32)CCO4)c2ccccc21 (stereo not drawn) [Example 9.3, 1′-[2-(2-oxo-1,3-oxazolidin-3-yl)ethyl]-5,6-dihydrospiro[benzo[1,2-b:5,4-b′]difuran-3,3′-indol]-2′(1′H)-one] |
| – | > 50 | 165 to 166 °C | 6.00 to 7.00 | O=C1N(Cc2ccc(Cl)s2)c2c(C(F)(F)F)cccc2C12COc1cc3c(cc12)OCO3 (stereo not drawn) [Example 4.75, 1-[(5-chloro-2-thienyl)methyl]-7′-(trifluoromethyl)spiro[furo[2,3-f][1,3]benzodioxole-7,3′-indol]-2′(1′H)-one] |
| – | < 50 | > 250 °C | 6.00 to 7.00 | O=C1Nc2c(Cl)cccc2C12COc1cc3c(cc12)CCO3 (stereo not drawn) [Example 3.15, 7′-chloro-5,6-dihydrospiro[benzo[1,2-b:5,4-b′]difuran-3,3′-indol]-2′(1′H)-one] |
| – | < 50 | 169 to 170 °C | 6.00 to 7.00 | O=C1N(Cc2ccc(OCc3ccccc3)cc2)c2ccccc2C12COc1cc3c(cc12)CCO3 (stereo not drawn) [Example 9.38, 1′-[4-(benzyloxy)benzyl]-5,6-dihydrospiro[benzo[1,2-b:5,4-b′]difuran-3,3′-indol]-2′(1′H)-one] |
| – | < 50 | > 135 °C (dec.) | 6.00 to 7.00 | CN1CCOc2cc3c(cc21)C1(CO3)C(=O)N(C[C@H]2CCCO2)c2ccccc21.Cl (stereo partly drawn) [Example 2.29, 1-methyl-1′-[(2R)-tetrahydrofuran-2-ylmethyl]-2,3-dihydro-1H-spiro[furo[3,2-g][1,4]benzoxazine-8,3′-indol]-2′(1′H)-one hydrochloride] |
| – | > 50 | 201 to 202 °C | 7.00 to 9.00 | O=C1N(Cc2ccc(Br)cn2)c2ccccc2C12COc1cc3c(cc12)OCCO3 (stereo not drawn) [Example 1.14, 1′-[(5-bromopyridin-2-yl)methyl]-2,3-dihydrospiro[furo[2,3-g][1,4]benzodioxine-8,3′-indol]-2′(1′H)-one] |
| – | > 50 | 197 to 199 °C | 5.00 to 6.00 | O=C1N(Cc2ccccn2)c2ccccc2C12COc1c(Cl)cc3c(c12)OCCO3 (stereo not drawn) [Example 4.126, 6-chloro-1′-(pyridin-2-ylmethyl)-2,3-dihydrospiro[furo[3,2-f][1,4]benzodioxine-9,3′-indol]-2′(1′H)-one] |
| – | < 50 | 226 to 227 °C | 6.00 to 7.00 | Cc1noc2cc3c(cc12)C1(CO3)C(=O)Nc2ccccc21 (stereo not drawn) [Example 3.6, 3-methylspiro[furo[3,2-f][1,2]benzisoxazole-5,3′-indol]-2′(1′H)-one] |
| – | > 50 | 165 to 167 °C | 6.00 to 7.00 | Nc1nc(C(F)(F)F)c(CN2C(=O)C3(COc4cc5c(cc43)OCO5)c3ccccc32)s1 (stereo not drawn) [Example 4.82, 1′-{[2-amino-4-(trifluoromethyl)-1,3-thiazol-5-yl]methyl}spiro[furo[2,3-f][1,3]benzodioxole-7,3′-indol]-2′(1′H)-one] |
| 7.00 to 9.00 | < 50 | 230 to 233 °C | – | N#Cc1cccnc1CN1C(=O)C2(COc3cc4c(cc32)OCCO4)c2ccccc21 (stereo not drawn) [Example 11.80] |
| – | < 50 | 198 to 199 °C | 7.00 to 9.00 | N#Cc1ccc2c(c1)C1(COc3cc4c(cc31)OCCO4)C(=O)N2Cc1ccccn1 (stereo not drawn) [Example 2.50, 2′-oxo-1′-(pyridin-2-ylmethyl)-1′,2,2′,3-tetrahydrospiro[furo[2,3-g][1,4]benzodioxine-8,3′-indole]-5′-carbonitrile] |
| 5.00 to 6.00 | > 50 | 184 to 186 °C | – | CCc1ccccc1NC(=O)c1ccccc1CN1C(=O)C2(COc3cc4c(cc32)CCO4)c2ccccc21 (stereo not drawn) [Example 12.9, N-(2-ethylphenyl)-2-[(2′-oxo-5,6-dihydrospiro[benzo[1,2-b:5,4-b′]difuran-3,3′-indol]-1′(2′H)-yl)methyl]benzamide] |
| 5.00 to 6.00 | > 50 | 196 to 198 °C | – | CCCCCCCNC(=O)c1ccccc1CN1C(=O)C2(COc3cc4c(cc32)CCO4)c2ccccc21 (stereo not drawn) [Example 12.15, N-heptyl-2-[(2′-oxo-5,6-dihydrospiro[benzo[1,2-b:5,4-b′]difuran-3,3′-indol]-1′(2′H)-yl)methyl]benzamide] |
